Common to all, as to format: in vivo, human
For series [1], the system named is patient with frontotemporal dementia with parkinsonism. The series can be described thus: Case study, clinical examination. Conditions: Ex. 9, frontotemporal dementia with parkinsonism; L-Dopa and Ropinirol together. The source says:
After approximately one month of acetyl-leucine treatment, medication was stopped and the patient was re-examined 13 days later.

Series [2] concerns patients with progressive supranuclear palsy. The series can be described thus: Case studies, clinical examination. How it is done:
After 27 days of acetyl-leucine treatment, medication was stopped and the patient was re-examined 60 days later. […] Gait analysis was performed before treatment commenced. After 17 days of treatment, medication was stopped and the patient was re-examined 4 days later. […] Gait analysis was performed before treatment commenced. After three weeks of treatment, medication was stopped and the patient was re-examined.

In series [3] the test system is patient with corticobasal syndrome. The series can be described thus: Case study, clinical examination. Conditions: Ex. 10, corticobasal syndrome. The protocol: Gait analysis was performed before treatment commenced. After 20 days of acetyl-leucine treatment, the patient was re-examined. […] After 8 weeks of acetyl-leucine treatment, medication was stopped and the patient was re-examined 6 days later.

Series [4] has as its system patients with multiple system atrophy Parkinson type (MSA-P). In words: Case studies, clinical examination. From the text: Medication was stopped. […] The patient evaluated after one month on acetyl-DL-leucine. […] Episodes of mental confusion completely disappeared. The patient's cognitive structure seemed much clearer and straighter. […] The patient's spouse supported continuing the medication.

Series [5] relates to patient with Lewy Body dementia. In words: Case study, clinical evaluation. Conditions: Ex. 17, Lewy Body dementia; Levodopa 100 mg 4× daily and Quetiapin 25 mg at night together. How it is done:
The patient started taking acetyl-leucine (3 g/day for one week; 5 g/day thereafter) and was evaluated after four weeks. […] Medication was reduced to 3 g/day, and the patient was instructed to stop medication about two weeks later.

For series [6], the system named is patients with downbeat nystagmus. In words: Case studies, clinical examination (visual acuity, posturography). From the text:
The patient was diagnosed with downbeat nystagmus: the patient was severely impaired by blurred vision (oscillopsia) due to the nystagmus, and experienced difficulties while reading and writing. The patient's visual acuity was: right 0.75, left 0.67, binocular 0.83, and the downbeat nystagmus was documented by video-oculography. […] […] […] The patient was able to suppress the nystagmus by visual fixation. In addition, the patient's spatial orientation was improved.

Series [7] has as its system patients with amyotrophic lateral sclerosis (ALS). The series can be described thus: Case studies, medical examination. The note with it: Ex. 7 Patient 1, ALS; before acetyl-DL-leucine. From the text: The results were documented by video.

Molecules are shown by their SMILES.

As for `CCCN(CCC)CCc1cccc2c1CC(=O)N2` [Ropinirol], in series [1], the response to treatment result was “little improvement”.

For `N[C@@H](Cc1ccc(O)c(O)c1)C(=O)O` [L-Dopa], the response to treatment result in series [2] (Ex. 11 Patient 1, progressive supranuclear palsy) is on record as “little improvement”; in series [2] (Ex. 11 Patient 2, PSP), “no levodopa response”; in series [2] (Ex. 11 Patient 3, PSP) it was “no levodopa response”; in series [2] (Ex. 11 Patient 4, PSP), “slight levodopa response”; in series [3], “no improvement”; in series [1] it was “little improvement”. Moreover, the response to treatment result in series [4] (Ex. 13 Patient 1, MSA-P, 100/25 mg 3× daily) is given as “discreet Levodopa response”; in series [5], “improved the symptomatology”. Besides, the tolerability entry in series [4] (Ex. 13 Patient 3, MSA-P) was “suspended due to side effects”.

Consider `OCCOCCN1CCN(C2=Nc3ccccc3Sc3ccccc32)CC1` [Quetiapin], for which the response to treatment entry in series [5] is recorded as “improved the symptomatology”.

In the case of `Nc1ccncc1` [4-aminopyridine], the response to treatment entry is “did not give rise to any benefit” in series [6] (Ex. 12 Patient 1, downbeat nystagmus, 10 mg twice daily for four weeks) and “did not benefit” in series [6] (Ex. 12 Patient 2, downbeat nystagmus).

Turning to `Nc1nc2ccc(OC(F)(F)F)cc2s1` [Riluzol], in series [7], the clinical symptomatology entry is “clinical symptomatology remained unchanged”.

The values are drawn from patent US12144792B2, “Therapeutic agents for neurodegenerative diseases” (priority 2016, dated 2024).
